# Measured values taken from patent US20160089379A1, “TREATMENT OF NEUROLOGICAL AND OTHER DISORDERS” (PALMAYA PTY LTD, priority 2013, published 2016).
# Read-outs that look alike come from different tables or passages of the source.
# Legend:
# patients [1] = test: Naltrexone therapy in approximately 6,000 patients; type: in vivo, human
# Procedure: Our experiments in approximately 6,000 patients treated with naltrexone (release rate of between 0.5 to 20 mg/day) or 1 to 100 micrograms per hour, with similar release rates of antagonists, has confirmed improvements in multiple sclerosis in our patients and also in crohn's disease which are both inflammatory conditions. […] These experiments showing blocking of dopamine is why the combination of right hand isomer of naltrexone and flumazenil in the dose range described is the ideal treatment to arrest multiple sclerosis.
# human adult volunteers = test: Infusion of flumazenil for treatment of benzodiazepine addiction; type: in vivo
# [2] = test system: patient suffering from Parkinson's disease; test: Finger tap test (one minute) and L-dopa intake in a Parkinson's disease patient; type: in vivo, human; conditions: for Tapping score: flumazenil 170 micrograms per hour plus 10 mg of valium per day
# Procedure: A study was conducted to test the theory that the loss of function of neuronal cells from hyperpolarisation in a patient suffering from Parkinson's disease could be reversed, improved or corrected. […] In addition, the patient was also given 10 mg of valium per day to facilitate the “sick cells” in the substantia niagra region of the brain stem, being able to produce their own dopamine again.
# The patient was asked to perform the “finger tap test”, which is an indicator of the extent of Parkinson's disease. Briefly, the patient is asked to tap an index finger as fast as possible for one (1) minute (CNS tap test). The greater the number of taps per minute, the greater the improvement.
# The following results were observed over four hours of treatment to the patient.
# [3] = test system: idiopathic hypersomnia patients; test: Treatment of idiopathic hypersomnia patients with flumazenil; type: in vivo, human
# From the text: We tested this model of disease again in two idiopathic hypersomnia patients. Both individuals had severe sleep drunkenness for over 18 months (Patient 1) and for over 13 years (Patient 2). We believe this illness to be due to the damage in the balance between an initial insult that had caused hyperpolarisation of cells which made them nonresponsive to benzodiazepine, as the prolonged presence of high levels of endogenous benzodiazepines continues long after the initial insult or disease. The homeostatic mechanisms that balance the delivery of dopamine to their cells responded to the damaged benzodiazepine receptors by maintaining the endogenous benzodiazepines at a high level in order to get some benzodiazepines to their cells. This inadequate dopamine delivered by response to valium was not occurring when we met these patients and so their cells remained unable to conduct currents and also unable to recover from their hyperpolarisation in the absence of dopamine.
# […]. Patient 2 was treated in a similar way.
# This is in contrast with an existing patient treated by the Emery Research Group, who indicated a dose of approximately 2 mg per body mass unit per day would be required. For P1, with a BMI of 34 this would equate to 68 mg per day, 17 times what they were given during the infusion.
# During the infusion and the two weeks prior, P1 kept a record of sleepiness and mood, upon awaking, mid-awake and pre-sleep on a scale of 0-10. For sleepiness 0 represented an unavoidable need to sleep, while 10 is feeling awake and rested. Similarly for mood, 0 represents rock bottom, while 10 was chirpy, happy and cheerful.
# Solubility of flumazenil = type: physicochemical
# epilepsy patient = test: Treatment of epilepsy patient with flumazenil; type: in vivo, human; conditions: 170 micrograms per hour, day following treatment
# patients [4] = test system: patients
# patients [5] = conditions: intravenous or oral bolus doses as high as 20,000 micrograms; work of others; cited from earlier work
# release of dopamine = conditions: rats; combination of flumazenil and benzodiazepines; cited from earlier work
# [6] = P1, 4 day subcutaneous infusion, 4 mg per day
# [7] = P1, post treatment, scale of 0-10, 10 is feeling awake and rested
# [8] = P1, post treatment, scale of 0-10, 10 was chirpy, happy and cheerful
# [9] = P2, before dose was doubled to 8 mg/day
# [10] = release rate of between 0.5 to 20 mg/day or 1 to 100 micrograms per hour
smiles,measurement,setting,value
"O=C1CC[C@@]2(O)[C@H]3Cc4ccc(O)c5c4[C@@]2(CCN3CC2CC2)[C@H]1O5 (single isomer, unassigned) [L isomer of naltrexone]",dopamine effects,"patients [1]; human, in vivo",reduces dopamine effects
CCOC(=O)c1ncn2c1CN(C)C(=O)c1cc(F)ccc1-2 [flumazenil],relief in those who had damaged their benzodiazepine receptors,"human adult volunteers; 1-8 mg of flumazenil per day, usually within hours of commencing",gained relief
same,symptoms treated by benzodiazepines,"human adult volunteers; flumazenil infusions, within hours, maintained for up to 3 to 4 days or longer",marked improvement
same,safety of long term flumazenil in humans,"human adult volunteers; more than 500 patients, intravenous, subcutaneous and implant delivery",safe for use in human beings
same,Tapping score,[2]; 0 hours from infusion (baseline),40 taps per minute
same,Tapping score,[2]; 2 hours from infusion,50 taps per minute
same,Tapping score,[2]; 3 hours from infusion,60 taps per minute
same,Tapping score,[2]; 4 hours from infusion,73 taps per minute
same,L-dopa medication dosage after commencing infusion treatment,"[2]; reduced from 1500 mg/day within days of commencing infusion, with valium",250 mg/day
same,sleep drunkenness,"[3]; 4 mg per day, within 3 days, both patients",full relief
same,"concentration, memory and attention span",[3]; [6],marked improvement
same,symptoms of IH reported during the infusion,[3]; [6],"not having experienced any sleep drunkenness, excessive day time sleepiness, heart palpitations or cold hands and feet"
same,Stanford Sleepiness Scale (SSS) score,"[3]; P1, at completion of flumazenil treatment, 6 out of a possible 8 at the time of treatment",3
same,Epworth Sleepiness Scale (ESS) score,"[3]; P1, at completion of flumazenil treatment, 21 of a possible 24 at the time of treatment",4
same,Awaking sleepiness,[3]; [7],6.2 ± 0.8
same,Mid-awake sleepiness,[3]; [7],6.8 ± 0.5
same,Pre-sleep sleepiness,[3]; [7],5.8 ± 1.7
same,Awaking mood,[3]; [8],8.8 ± 0.4
same,Mid-awake mood,[3]; [8],8.8 ± 0.5
same,Pre-sleep mood,[3]; [8],8.5 ± 0.6
same,mental clarity of second patient (P2),[3]; [9],increase in mental clarity
same,tiredness and napping of second patient (P2),[3]; [9],still been very tired and napping through the day
same,health status of Patient 1,"[3]; flumazenil infusion at 2 mg/day by implant, within 7 days",full return to normal health
same,solubility,"Solubility of flumazenil; pH 1.2, simulated gastric fluid",3000 µg/mL
same,solubility,"Solubility of flumazenil; pH 7.5, aqueous buffer, pH of 7.5",600 µg/mL
same,tolerance of light (light activating peti mal episodes),epilepsy patient,able to go for a walk in the sun for an hour with no hat or sunglasses
same,fits (peti mal episodes),"epilepsy patient; none since (48 hour), previously at least 4-5 times each day",no fits
same,calmness and the ability to relate to others,"patients [4]; 20 to 300 microgram per hour, subcutaneous and intravenous infusions, within 3 days (5 days at the lower end)",significant improvement
same,"extent of changes in those with depression, anxiety and fear",patients [4]; at the 20 mg/hour end of the scale,less
same,"extent of changes in those with depression, anxiety and fear",patients [4]; beyond 40 mg/hour,very marked
same,"confidence in those with depression, anxiety and fear",patients [4]; during the infusion treatment,showed a confidence in themselves
same,depression and anxiety symptoms in patients previously diagnosed with psychosis,patients [4]; more than 20 of the 500,lifted in their depression and in their anxiety symptoms
same,alertness during infusion treatment,patients [4]; most of the 500,an increase in problem solving and reported a decrease in distractibility
same,sleep,"patients [4]; nearly all of the 500, one patient reported difficulty getting to sleep",return to natural sleep
same,adverse effects of bolus doses,patients [5],anxiety attacks or fits
same,release of dopamine,release of dopamine,enhance the release of dopamine
O=C1CC[C@@]2(O)[C@H]3Cc4ccc(O)c5c4[C@@]2(CCN3CC2CC2)[C@H]1O5 [naltrexone],crohn's disease,patients [1]; [10],improvements
same,multiple sclerosis,patients [1]; [10],improvements
